Results: US6365594B1, “Heterocycle-condensed morphinoid derivatives (II)” (SmithKline Beecham S.p.A., priority 1996, dated 2002)
Structures can show the parent of a compound that is named as a salt.

Key:
delta receptor = target: T1, delta receptor (Mus musculus, UniProt P32300); test: cAMP bioassay in NG108-15 cells (inhibition of forskolin-stimulated cAMP); assay type: cell-based
T1 construct: endogenous in cells; host or cells: NG108-15 cells
Protocol: The delta agonistlantagonist activity of the compounds of the present invention is determined in the cAMP bioassay in NG108-15 cell lines as described below.
NG 108-15 cell were grown at 37° C. in humidified atmosphere of 5% CO2 and 95% air in DMEM (without sodium pyruvate using 4500 mg/l glucose) supplemented with 10% foetal calf serum containing 2 mM glutamine, 2% HAT×50 supplement, 50 μg streptomycin and 50 I.U. penicillin per ml confluent cells were harvested with […] in Ca/Mg-free phosphate-buffered saline with mechanical stiring. Medium was replaced every 2 day. One day before the experiment the cells were dispensed in 17 mm culture plate (about 10×10^6 cells/plate). After 1 day, the growth medium was removed and cells washed twice with a modified Krebs-Ringer medium buffered with hepes-NaOH 200 mM, pH 7.4, that contained (mmol/l): NaCl (125), KCl (5), KH2PO4 (0.4), MgSO4 and CaCl2 (1.2) NaHCO3 (25), glucose (12). Incubation medium was also including 1 mM 3-isobuthyl-1-methylxantine (IBMX). Experiments were performed at room temperature. After incubation for 10 minutes to allow IBMX incorporation, NG108-15 cells were exposed to 1 μM forskolin and the compound to be tested, for 10 minutes. […] The pellets from the original plates were dissolved in NaOH 0.5N and the protein content was determined with the method described by Bradfort (Anal. Biochem. 1976, 72, 248). […]

mu opioid receptor = target: T2, mu opioid receptor (Mus musculus, UniProt P42866); test: radioligand binding, mu ligand [3H]-DAMGO, mouse brain membranes; details: selectivity ratio
T2 construct: Mouse brain membranes were prepared as described by Kosterlitz; from tissue; host or cells: mouse brain membranes
T2 sequence (P42866 whole entry): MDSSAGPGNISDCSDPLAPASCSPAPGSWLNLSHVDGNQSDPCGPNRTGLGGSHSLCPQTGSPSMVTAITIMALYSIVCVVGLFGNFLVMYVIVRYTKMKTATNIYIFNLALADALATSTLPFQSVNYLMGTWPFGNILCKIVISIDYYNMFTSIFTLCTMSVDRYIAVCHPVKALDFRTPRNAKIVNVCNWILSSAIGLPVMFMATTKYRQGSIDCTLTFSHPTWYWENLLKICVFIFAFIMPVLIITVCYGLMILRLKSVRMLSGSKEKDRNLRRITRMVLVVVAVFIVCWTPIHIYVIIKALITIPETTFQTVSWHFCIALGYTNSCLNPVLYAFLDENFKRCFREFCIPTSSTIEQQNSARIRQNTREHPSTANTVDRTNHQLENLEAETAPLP
Protocol: (§1) The activity of the compounds of the present invention as selective delta ligands is determined in radioligand binding assays as described below.
(§2) Mouse brain membranes were prepared as described by Kosterlitz (Br. J. Pharmacol., 1981, 73, 939.). The binding of the preferential delta ligand [^3H]-[D-Ala^2,D-Leu^5]-enkephalin (DADLE) was evaluated at its KD concentration (1.3 nM) in presence of 40 nM of the unlabelled mu ligand [D-Ala^2, MePhe^4, Gly-ol^5]-enkephalin (DAMGO). The binding of the mu ligand [^3H]-DAMGO (Eur. J. Pharmacol., 1989, 166, 213) and of the kappa ligand [^3H]-U69593 (Excerpta Medica, 1990, 211) were carried out at 0.5 nM. The non-specific binding was determined in presence of naloxone (10 μM) for all tritiated ligands. Binding data were expressed as percentage of inhibition and fitted the following equation: f(x)=100·X/(IC50+X) where X are cold drug concentration values. The IC50 obtained were used to calculate the inhibitory constants (Ki) accordingly to the Cheng and Prusoff relation (Biochem. Pharmacol., 1973, 22, 3099).

kappa opioid receptor = target: T3, kappa opioid receptor (Mus musculus, UniProt P33534); test: radioligand binding, kappa ligand [3H]-U69593, mouse brain membranes; details: selectivity ratio
T3 construct: Mouse brain membranes were prepared as described by Kosterlitz; from tissue; host or cells: mouse brain membranes
T3 sequence (P33534 whole entry): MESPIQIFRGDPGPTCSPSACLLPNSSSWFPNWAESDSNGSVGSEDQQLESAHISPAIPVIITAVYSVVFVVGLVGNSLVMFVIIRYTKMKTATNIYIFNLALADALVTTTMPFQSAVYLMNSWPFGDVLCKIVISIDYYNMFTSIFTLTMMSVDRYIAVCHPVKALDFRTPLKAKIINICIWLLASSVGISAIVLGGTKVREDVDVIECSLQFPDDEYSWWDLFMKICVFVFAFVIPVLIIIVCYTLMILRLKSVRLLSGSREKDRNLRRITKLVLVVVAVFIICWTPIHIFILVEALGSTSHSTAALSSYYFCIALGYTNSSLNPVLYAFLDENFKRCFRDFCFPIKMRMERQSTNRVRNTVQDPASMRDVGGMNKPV
Protocol: as §1, §2

T1 sequence (P32300 whole entry): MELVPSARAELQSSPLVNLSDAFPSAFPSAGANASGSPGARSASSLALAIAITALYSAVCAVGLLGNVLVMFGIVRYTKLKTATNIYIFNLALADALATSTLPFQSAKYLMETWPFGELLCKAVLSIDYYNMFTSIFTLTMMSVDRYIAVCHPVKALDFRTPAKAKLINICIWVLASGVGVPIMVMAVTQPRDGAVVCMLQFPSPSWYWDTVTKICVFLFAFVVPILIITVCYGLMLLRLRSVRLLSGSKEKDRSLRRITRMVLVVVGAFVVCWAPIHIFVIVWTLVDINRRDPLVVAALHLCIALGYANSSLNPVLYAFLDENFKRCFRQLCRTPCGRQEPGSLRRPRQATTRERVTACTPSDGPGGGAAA

## COc1ccc2c3c1O[C@H]1c4[nH]c(C(=O)N(Cc5ccccc5)C(C)C)c(C)c4C[C@H]4[C@@H](C2)N(C)CC[C@]314 [Example 1, [R-(4bS*,8α,s8aβp,12βp)]11(N-N-benzylN-isopropylaminocarbonyl)-7,10dimethyl-1-methoxy-5,6,7,8,12,12b-hexahydro-(9H){4,8methanobenzofuro[3,2]pyrrolo[2,3-g]soquinoline hydrochloride]
Delta receptor
  IC50: 15 nM
Delta receptor; NG108-15 cells, naltrindole 100 nM
  antagonism of the agonist activity by the selective delta antagonist naltrindole: completely antagonised

## CCOC(=O)c1[nH]c2c(c1C(F)(F)F)C[C@H]1[C@H]3Cc4ccc(OC)c5c4[C@@]1(CCN3C)[C@H]2O5 [Example 10]
Mu opioid receptor
  Ki mu/Ki delta: 840
Kappa opioid receptor
  Ki kappa/Ki delta: 600
other
  melting point: 174 °C
